The values below come from article PMC6943709, “Synergistic Inhibition of Acetylcholinesterase by Alkaloids Derived from Stephaniae Tetrandrae Radix, Coptidis Rhizoma and Phellodendri Chinensis Cortex” (Molecules, 2019).

Read-outs that look alike come from different tables or passages of the source.

The test addresses T1, Acetylcholinesterase (AChE) (Mus musculus, UniProt P21836).
T1 construct: The assay medium consisted of brain lysate (5 mg/mL) containing different concentrations of testing drugs; from tissue; host or cells: mouse brain lysate
Put plainly: biochemical. Type of test: biochemical. The following applies: for AChE Inhibitory Activity: ranking by IC50, molar concentration (alkaloids). As for the experimental part:
The combinations of fangchinoline–coptisine/berberine at concentration ratios of 1:5, 1:2, 1:1, and 2:1 were individually prepared by mixing appropriate volumes of fangchinoline and coptisine or berberine stock solutions. The solutions of fangchinoline–coptisine combinations (with initial system concentrations 4:20, 10:20, 20:20, and 20:10 μM, respectively) were diluted into seven concentrations by DMSO, respectively. The solutions of fangchinoline–berberine combinations (with initial system concentrations 2:10, 5:10, 10:10, and 20:10 μM, respectively) were diluted into seven concentrations by DMSO, respectively. The stocks of tetrandrine, epiberberine, and palmatine were taken appropriately and diluted into six concentrations (with initial system concentrations 30, 100, and 50 μM, respectively) by DMSO, respectively.
The mouse brain lysate (0.1 g/mL, containing 10 mM HEPES (pH 7.4), 1 mM EDTA, 1 mM EGTA, 150 mM NaCl, 0.5% triton X-100, 10 μg/mL leupeptin, 10 μg/mL aprotinin, 10 μg/mL pepstatin, and 50 μg/mL benzamidine HCL) was prepared. AChE enzymatic activity was assayed by 96-well microtiter plate with a final volume of 200 μL, according to the Ellman method. […] Briefly, the mixture of brain lysate containing the testing drugs, Na2HPO4 buffer, and iso-OMPA solution were incubated at 37 °C for 10 min, and then ATCh and DNTB solutions were added. The reaction solution was incubated at 37 °C for 30 min, and AChE activity was determined by measuring the absorbance at 405 nm. To eliminate the drug–solvent influence on AChE enzymatic activity, the concentration of DMSO was controlled at 0.5% in the 200 μL reaction volume. In order to correct for color interference at 405 nm, a background color contrast group without brain lysate and a drug color contrast group without brain lysate were set, respectively. […] Tacrine was used as a positive control. Protein concentrations were measured with a kit from Bio-Rad (Hercules, CA, USA).

T1 sequence (P21836 32-614): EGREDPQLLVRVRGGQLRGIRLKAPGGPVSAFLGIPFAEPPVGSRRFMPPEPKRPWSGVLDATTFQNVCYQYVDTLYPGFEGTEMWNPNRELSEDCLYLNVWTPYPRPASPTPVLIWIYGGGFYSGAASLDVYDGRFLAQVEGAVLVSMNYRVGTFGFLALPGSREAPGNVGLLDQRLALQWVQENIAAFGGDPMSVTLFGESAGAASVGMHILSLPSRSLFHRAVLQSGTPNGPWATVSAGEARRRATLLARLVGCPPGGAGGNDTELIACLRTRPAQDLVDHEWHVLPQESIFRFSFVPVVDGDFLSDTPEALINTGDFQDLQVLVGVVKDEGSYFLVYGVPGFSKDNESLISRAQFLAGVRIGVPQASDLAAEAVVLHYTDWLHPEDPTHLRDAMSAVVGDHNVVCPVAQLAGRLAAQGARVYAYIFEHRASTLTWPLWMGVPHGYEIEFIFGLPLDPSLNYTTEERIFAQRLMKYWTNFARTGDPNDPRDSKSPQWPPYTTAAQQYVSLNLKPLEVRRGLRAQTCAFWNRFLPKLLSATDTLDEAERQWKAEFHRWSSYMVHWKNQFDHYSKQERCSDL

Usually IC50 stands for the concentration that inhibits the measured activity by half. For `COc1cc2c(cc1OC)-c1cc3ccc4c(c3c[n+]1CC2)OCO4` [Epiberberine], the “AChE Inhibitory Activity” value is “+ (for molar concentration, “+++”, “++”, and “+” represent IC50 values of 1–5, 5–10 and 10–20 μM, respectively)”. Moreover, the IC50 (single alkaloids, mouse brain lysate, Mean ± SEM, n = 3, read-out: IC50) turned out to be 18.7 ± 0.83 µM.
With `COc1ccc2cc3[n+](cc2c1OC)CCc1cc2c(cc1-3)OCO2` [Berberine], the IC50 was 2.33 ± 0.16 µM; the “AChE Inhibitory Activity” value was “+++ (for molar concentration, “+++”, “++”, and “+” represent IC50 values of 1–5, 5–10 and 10–20 μM, respectively)”.
As for `COc1cc2c(cc1OC)-c1cc3ccc(OC)c(OC)c3c[n+]1CC2` [Palmatine], the IC50 turned out to be 6.52 ± 0.84 µM; the “AChE Inhibitory Activity” value was “++ (for molar concentration, “+++”, “++”, and “+” represent IC50 values of 1–5, 5–10 and 10–20 μM, respectively)”.
With `COc1ccc2cc1Oc1ccc(cc1)C[C@H]1c3cc(c(OC)cc3CCN1C)Oc1c(O)c(OC)cc3c1[C@H](C2)N(C)CC3` [Fangchinoline], the IC50 amounted to 2.17 ± 0.05 µM; the “AChE Inhibitory Activity” value is “+++ (for molar concentration, “+++”, “++”, and “+” represent IC50 values of 1–5, 5–10 and 10–20 μM, respectively)”.
With `c1c2c(cc3c1OCO3)-c1cc3ccc4c(c3c[n+]1CC2)OCO4` [Coptisine], the IC50 was found to be 13.5 ± 1.48 µM; the “AChE Inhibitory Activity” value is “+ (for molar concentration, “+++”, “++”, and “+” represent IC50 values of 1–5, 5–10 and 10–20 μM, respectively)”.
On to `COc1ccc2cc1Oc1ccc(cc1)C[C@H]1c3cc(c(OC)cc3CCN1C)Oc1c(OC)c(OC)cc3c1[C@H](C2)N(C)CC3` [Tetrandrine], for which the “AChE Inhibitory Activity” value was “−”. The AChE inhibitory potency result (mouse brain lysate, result in words) is “did not show AChE inhibitory potency”.
